Measured values: ChEMBL document CHEMBL4304823, “Photo-induced synthesis of Axinastatin 3 analogs, the secondary structures and their in vitro antitumor activities” (Bioorg Med Chem Lett, 2019)
≈ marks a conversion by molar mass, not a printed value. Calls of active or inactive are those of the source. The calls are words filed in the database; no cut-off is given here.

Legend:
[1] = system: HeLa; experiment: Antitumour activity against human HeLa cells assessed as reduction in cell viability by MTT assay; type: functional, cell-based
[2] = system: HepG2; experiment: Antitumour activity against human HepG2 cells assessed as reduction in cell viability incubated for 48 hrs by MTT assay; type: functional, cell-based; settings: HepG2, 48 h
[3] = system: L929; experiment: Cytotoxicity against mouse L929 cells assessed as reduction in cell viability measured after 48 hrs; type: cell-based; settings: for IC50: Mus musculus, L929, 48 h; for Activity: mouse, l929, 48 h
[4] = system: HepG2; experiment: Induction of cell morphological changes in human HepG2 cells assessed as change in normal spindle cell shape to rounder cells with weak adhesion ability at 40 uM measured after 0 to 48 hrs by fluorescence inversion microscopy analysis; type: functional, cell-based
[5] = system: HepG2; experiment: Induction of cell morphological changes in human HepG2 cells assessed as decrease in cell number at 40 uM measured after 0 to 48 hrs by fluorescence inversion microscopy analysis; type: functional, cell-based
[6] = system: HepG2; experiment: Induction of cell death in human HepG2 cells at 40 uM measured after 48 hrs by fluorescence inversion microscopy analysis; type: functional, cell-based

Compound	IC50 [1]	IC50 [2]	IC50 [3]	Activity [3]	Activity [4]	Activity [5]	Activity [6]
CC[C@H](C)[C@@H]1NC(=O)CN2C(=O)c3ccccc3[C@@]2(O)CN(Cc2ccccc2)C(=O)[C@@H]2CCCN2C(=O)[C@H](C(C)C)NC(=O)[C@@H]2CCCN2C(=O)[C@H](CC(C)C)NC1=O	41.2 µg/mL (≈ 49.7 µM)	38.4 µg/mL (≈ 46.4 µM)	50.5 µg/mL (≈ 61 µM)	Dose-dependent effect	–	–	–
CC[C@H](C)[C@@H]1NC(=O)CN2C(=O)c3ccccc3[C@@]2(O)CN(Cc2ccccc2)C(=O)[C@H]2CCCN2C(=O)[C@H](C(C)C)NC(=O)[C@H]2CCCN2C(=O)[C@H](CC(C)C)NC1=O	–	–	–	–	Active	Active	Active
CCNC(=O)CC[C@@H]1NC(=O)CN2C(=O)c3ccccc3[C@@]2(O)CN(Cc2ccccc2)C(=O)[C@H]2CCCN2C(=O)[C@H](C(C)C)NC(=O)[C@H]2CCCN2C(=O)[C@H](CC(C)C)NC(=O)[C@H]([C@@H](C)CC)NC1=O	280 µg/mL (≈ 285 µM)	64.5 µg/mL (≈ 65.6 µM)	61.1 µg/mL (≈ 62 µM)	Dose-dependent effect	–	–	–

Now from value to molecule, other results behind:

IC50 [1]	IC50 [2]	Compound	IC50 [3]	Activity [3]	Activity [4]	Activity [5]	Activity [6]
> 400 µg/mL	102 µg/mL (≈ 119 µM)	CC(=O)O[C@H]1C(=O)[C@@]2(C)[C@H]([C@H](OC(=O)c3ccccc3)[C@]3(O)C[C@H](OC(=O)[C@H](O)[C@@H](NC(=O)c4ccccc4)c4ccccc4)C(C)=C1C3(C)C)[C@]1(OC(C)=O)CO[C@@H]1C[C@@H]2O [PACLITAXEL]	33 µg/mL (≈ 38.6 µM)	–	–	–	–
89 µg/mL (≈ 107 µM)	72.6 µg/mL (≈ 87.6 µM)	CC[C@H](C)[C@@H]1NC(=O)CN2C(=O)c3ccccc3[C@]2(O)CN(Cc2ccccc2)C(=O)[C@@H]2CCCN2C(=O)[C@H](C(C)C)NC(=O)[C@@H]2CCCN2C(=O)[C@H](CC(C)C)NC1=O	86.2 µg/mL (≈ 104 µM)	Dose-dependent effect	–	–	–
